Literature values in US20160208299A1, “PRODUCTION OF ISOQUINOLINE ALKALOIDS AND FLAVONOIDS IN PLANT CELL CULTURES OF GOLDENSEAL (HYDRASTIS CANADENSIS)” (DIANAPLANTSCIENCES INC., priority 2015, published 2016).

Key:
E. coli = conditions: cells lining the walls of the urinary tract

COc1ccc2cc3[n+](cc2c1OC)CCc1cc2c(cc1-3)OCO2 [berberine]
effective: effectiveness in treating infection by blocking the adhesion of E. coli (E. coli) | effectiveness against parasite (Giardia lamblia) | effectiveness against parasite (Trichomonas vaginalis) | effectiveness against parasite (Entamoeba histolytica)
